Test results published in patent US20050245563A1 (Millennium Pharmaceuticals, Inc., priority 2003, published 2005).

biological target: T1, human Chk1 (GST-Chk1) (Homo sapiens, UniProt O14757); assay: Chk1 FlashPlate kinase assay; type: biochemical; conditions: 8.7 nM GST-Chk1, 1 uM ATP, 33P incorporation into peptide substrate
T1 construct: made in house; host or cells: insect cells (baculovirus, Bac-to-Bac)
T1 sequence (O14757 1-476): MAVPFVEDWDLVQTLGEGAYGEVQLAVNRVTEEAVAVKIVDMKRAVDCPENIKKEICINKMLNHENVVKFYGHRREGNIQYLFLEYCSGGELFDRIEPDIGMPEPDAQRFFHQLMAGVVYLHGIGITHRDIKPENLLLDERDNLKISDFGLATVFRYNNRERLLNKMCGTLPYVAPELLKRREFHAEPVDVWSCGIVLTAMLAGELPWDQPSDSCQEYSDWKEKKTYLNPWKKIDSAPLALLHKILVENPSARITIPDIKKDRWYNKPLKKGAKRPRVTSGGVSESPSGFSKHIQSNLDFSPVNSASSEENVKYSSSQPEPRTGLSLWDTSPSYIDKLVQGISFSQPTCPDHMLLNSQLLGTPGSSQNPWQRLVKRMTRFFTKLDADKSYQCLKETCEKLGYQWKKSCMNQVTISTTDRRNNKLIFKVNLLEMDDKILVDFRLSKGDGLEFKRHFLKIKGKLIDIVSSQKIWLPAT
Procedure, shortened: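 GST-tagged human Chk1 (8.7 nM), baculovirus-expressed, with 3 uM biotinylated peptide, 1 uM ATP plus ^33P-γ-ATP, in MES/EGTA pH 8.0, DTT, Tween 20, 4% DMSO; 30 min at room temperature. EDTA-stopped; phosphopeptide captured on streptavidin FlashPlates and ^33P counted by scintillation.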

Structure (SMILES) | IC50 [µM]
Cc1n[nH]c2c1c(=O)n(CC(C)CNC(=O)OC(C)(C)C)c1ccc(Br)cc21 (centres unmarked) [Example 41, [3-(8-Bromo-3-methyl-4-oxo-1,4-dihydro-pyrazolo[4,3-c]quinolin-5-yl)-2-methyl-propyl]-carbamic acid tert-butyl ester] | < 1
Cc1n[nH]c2c1c(=O)n(CC1CCNCC1)c1ccc(Br)cc21 [Example 39, 8-Bromo-3-methyl-5-piperidin-4-ylmethyl-1,5-dihydro-pyrazolo[4,3-c]quinolin-4-one] | < 1
Cc1[nH]nc2c1c(=O)n(CCCC#N)c1ccc(Br)cc21 [Example 20, 4-(8-Bromo-3-methyl-4-oxo-2,4-dihydro-pyrazolo[4,3-c]quinolin-5-yl)-butyronitrile] | < 1
Cc1n[nH]c2c1c(=O)n(C[C@@H](C)CNC(=O)OC(C)(C)C)c1ccc(Br)cc21 [Example 46, [3-(8-Bromo-3-methyl-4-oxo-1,4-dihydro-pyrazolo[4,3-c]quinolin-5-yl)-2-S-methyl-propyl]-carbamic acid tert-butyl ester] | < 1
COC(=O)CCCn1c(=O)c2c(C)n[nH]c2c2cc(Br)ccc21 [Example 17, 4-(8-Bromo-3-methyl-4-oxo-1,4-dihydro-pyrazolo[4,3-c]quinolin-5-yl)-butyric acid methyl ester] | < 1
Cc1n[nH]c2c1c(=O)n(CCCCN)c1ccc(Br)cc21 [Example 34, 5-(4-Amino-butyl)-8-bromo-3-methyl-1,5-dihydro-pyrazolo[4,3-c]quinolin-4-one] | < 1
CC(=O)OCCn1c(=O)c2c(C)n[nH]c2c2ccccc21 [Example 3, Acetic acid 2-(3-methyl-4-oxo-1,4-dihydro-pyrazolo[4,3-c]quinolin-5-yl)-ethyl ester] | 1 to 20
Cc1n[nH]c2c1c(=O)n(CCCNC(=O)OCc1ccccc1)c1ccccc21 [Example 13, [3-(3-Methyl-4-oxo-1,4-dihydro-pyrazolo[4,3-c]quinolin-5-yl)-propyl]-carbamic acid benzyl ester] | < 1
Cc1[nH]nc2c1c(=O)n(CCCNC(=O)C(Cc1ccc(OC(C)(C)C)cc1)NC(=O)OC(C)(C)C)c1ccccc21 (centres unmarked) [Example 98, {2-(4-tert-Butoxy-phenyl)-1-[3-(3-methyl-4-oxo-2,4-dihydro-pyrazolo[4,3-c]quinolin-5-yl)-propylcarbamoyl]-ethyl}-carbamic acid tert-butyl ester] | 1 to 20

Now from value to compound:

IC50 [µM] | Structure (SMILES)
< 1 | Cc1n[nH]c2c1c(=O)n(CCCNC(=O)OC(C)(C)C)c1ccc(Br)cc21 [Example 56, [3-(8-Bromo-3-methyl-4-oxo-1,4-dihydro-pyrazolo[4,3-c]quinolin-5-yl)-propyl]-carbamic acid tert-butyl ester]
< 1 | Cc1[nH]nc2c1c(=O)n(CCCN)c1ccc(Br)cc21 [Example 57, 5-(3-Amino-propyl)-8-bromo-3-methyl-1,5-dihydro-pyrazolo[4,3-c]quinolin-4-one]
< 1 | Cc1[nH]nc2c1c(=O)n(CCCNC(=O)CCN)c1ccccc21 [Example 124, 3-Amino-N-[3-(3-methyl-4-oxo-2,4-dihydro-pyrazolo[4,3-c]quinolin-5-yl)-propyl]-propionamide]
< 1 | Cc1[nH]nc2c1c(=O)n(CCCNC(=O)c1ccc(F)cc1F)c1ccccc21 [Example 63, 2,4-Difluoro-N-[3-(3-methyl-4-oxo-2,4-dihydro-pyrazolo[4,3-c]quinolin-5-yl)-propyl]-benzamide]
< 1 | Cc1n[nH]c2c1c(=O)n(C[C@@H](C)CN)c1ccc(Br)cc21 [Example 47, 5-(3-Amino-2-S-methyl-propyl)-8-bromo-3-methyl-1,5-dihydro-pyrazolo[4,3-c]quinolin-4-one]
< 1 | Cc1n[nH]c2c1c(=O)n(CCCNCCc1ccccc1)c1ccccc21 [Example 51, 3-Methyl-5-(3-phenethylamino-propyl)-1,5-dihydro-pyrazolo[4,3-c]quinolin4-one]
1 to 20 | COc1ccc(C(=O)NCCn2c(=O)c3c(C)[nH]nc3c3ccccc32)cc1 [Example 91, 4-Methoxy-N-[2-(3-methyl-4-oxo-2,4-dihydro-pyrazolo[4,3-c]quinolin-5-yl)-ethyl]-benzamide]
< 1 | CC(=O)NCCCn1c(=O)c2c(C)[nH]nc2c2ccccc21 [Example 86, N-[3-(3-Methyl-4-oxo-2,4-dihydro-pyrazolo[4,3-c]quinolin-5-yl)-propyl]-acetamide]
